{
  "source": "paper PMC8464955",
  "about": "“Prediction of Drug–Drug Interaction Potential of Tegoprazan Using Physiologically Based Pharmacokinetic Modeling and Simulation” (Pharmaceutics, 2021)",
  "tested_on": "CYP3A4",
  "test": "Inhibition of tegoprazan metabolism in human liver microsomes by CYP inhibitors",
  "assay_type": "in vitro ADME",
  "conditions": "in-house data",
  "description": "The major metabolic pathway of tegoprazan is the liver, and a negligible amount is excreted by urine. Both in vitro and clinical results have elucidated that tegoprazan is a potential substrate of cytochrome P450 (CYP) 3A4. […] According to the label of tegoprazan, systemic exposure to tegoprazan increases when tegoprazan is co-administered with clarithromycin. Based on the in vitro and clinical data, it can be inferred that drug–drug interaction (DDI) between tegoprazan and CYP3A4 inhibitor may occur. However, the clinical DDI studies of tegoprazan conducted so far have been limited to the DDI between tegoprazan and clarithromycin or clarithromycin and amoxicillin, because tegoprazan is likely to be administered with these medications for Helicobacter pylori eradication. Considering the substantial prevalence of acid-related diseases, tegoprazan is likely to be administered in combination with various drugs. […]\nThe elimination of the PBPK model consisted of enzyme kinetic and renal clearance (Table 1). Intrinsic clearances (CLint) of tegoprazan by various CYPs were determined by an in vitro study that measured the fraction of CLint inhibited by adding the inhibitors of CYP1A2, CYP2C9, CYP2C19, CYP2D6, and CYP3A to human liver microsomes (in-house data). […]",
  "data": [
    {"smiles": "CC(=O)N1CCN(c2ccc(OCC3COC(Cn4ccnc4)(c4ccc(Cl)cc4Cl)O3)cc2)CC1", "note": "(stereo not shown) [ketoconazole]", "values": [
      {"measurement": "effect of CYP inhibitor on the metabolism of tegoprazan", "result": "significantly inhibited"}
    ]}
  ]
}
